Laboratory results taken from ChEMBL document CHEMBL1201862, “PubChem BioAssay data set” (2004).
Calls of active or inactive are those of the source.

Key:
[1] = HEK293T cytotoxicity, dose response, cytotoxicity control for miR-122 modulator project, cell-based, inhibitor set, cherry-pick, set 2 (AID 720697); assay type: functional
[2] = biological target: Large T antigen (Simian virus 40, UniProt P03070); assay type: functional, Betapolyomavirus macacae;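 also: Confirmatory-stage PubChem screen for compounds that inhibit SV40 T antigen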
[3] = biological target: T1, Leucine aminopeptidase (Plasmodium falciparum 3D7, UniProt Q8IL11); experiment: P. falciparum M17LAP inhibitors, primary screen, biochemical, fluorogenic H-Leu-NHMec substrate, 1536-well (AID 1619); assay type: functional
T1 sequence (Q8IL11 whole entry): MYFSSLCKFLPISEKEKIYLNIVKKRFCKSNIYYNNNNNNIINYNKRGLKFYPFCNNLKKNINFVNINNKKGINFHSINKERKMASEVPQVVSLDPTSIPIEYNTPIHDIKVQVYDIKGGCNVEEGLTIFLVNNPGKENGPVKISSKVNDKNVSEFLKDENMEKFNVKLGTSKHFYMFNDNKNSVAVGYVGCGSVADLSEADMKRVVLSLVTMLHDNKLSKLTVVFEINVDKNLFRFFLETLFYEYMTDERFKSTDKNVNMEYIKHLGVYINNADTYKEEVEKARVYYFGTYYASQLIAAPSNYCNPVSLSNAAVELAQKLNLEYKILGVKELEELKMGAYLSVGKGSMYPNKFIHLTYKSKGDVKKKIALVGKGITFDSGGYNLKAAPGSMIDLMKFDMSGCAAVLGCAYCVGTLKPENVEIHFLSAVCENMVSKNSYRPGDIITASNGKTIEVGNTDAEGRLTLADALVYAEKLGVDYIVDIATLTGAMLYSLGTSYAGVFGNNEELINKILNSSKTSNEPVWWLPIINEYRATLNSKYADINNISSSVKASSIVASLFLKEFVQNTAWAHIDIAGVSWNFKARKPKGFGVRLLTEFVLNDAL

[4] = miR-122 activators in hepatoma reporter cells, dose response, cell-based, Huh7 psiCHECK-miR122, Renilla luciferase, cherry-picked (AID 651956); assay type: functional;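 also: huh7 hepatoma cells stably carrying a psiCHECK-2 miR-122 sensor plasmid; renilla luciferase signal reporting endogenous miR-122 activity after 48 h compound exposure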
[5] = biological target: T2, Apoptotic protease-activating factor 1 (Homo sapiens, UniProt O14727); experiment: SAR analysis of small molecule Activators of Apaf-1 in a Fluorescent assay.; assay type: functional; conditions: read-out: EC50_Mean;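 also: caspase-3 cleavage of fluorogenic Rh110 DEVD substrate downstream of apoptosome activation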
T2 sequence (O14727 whole entry): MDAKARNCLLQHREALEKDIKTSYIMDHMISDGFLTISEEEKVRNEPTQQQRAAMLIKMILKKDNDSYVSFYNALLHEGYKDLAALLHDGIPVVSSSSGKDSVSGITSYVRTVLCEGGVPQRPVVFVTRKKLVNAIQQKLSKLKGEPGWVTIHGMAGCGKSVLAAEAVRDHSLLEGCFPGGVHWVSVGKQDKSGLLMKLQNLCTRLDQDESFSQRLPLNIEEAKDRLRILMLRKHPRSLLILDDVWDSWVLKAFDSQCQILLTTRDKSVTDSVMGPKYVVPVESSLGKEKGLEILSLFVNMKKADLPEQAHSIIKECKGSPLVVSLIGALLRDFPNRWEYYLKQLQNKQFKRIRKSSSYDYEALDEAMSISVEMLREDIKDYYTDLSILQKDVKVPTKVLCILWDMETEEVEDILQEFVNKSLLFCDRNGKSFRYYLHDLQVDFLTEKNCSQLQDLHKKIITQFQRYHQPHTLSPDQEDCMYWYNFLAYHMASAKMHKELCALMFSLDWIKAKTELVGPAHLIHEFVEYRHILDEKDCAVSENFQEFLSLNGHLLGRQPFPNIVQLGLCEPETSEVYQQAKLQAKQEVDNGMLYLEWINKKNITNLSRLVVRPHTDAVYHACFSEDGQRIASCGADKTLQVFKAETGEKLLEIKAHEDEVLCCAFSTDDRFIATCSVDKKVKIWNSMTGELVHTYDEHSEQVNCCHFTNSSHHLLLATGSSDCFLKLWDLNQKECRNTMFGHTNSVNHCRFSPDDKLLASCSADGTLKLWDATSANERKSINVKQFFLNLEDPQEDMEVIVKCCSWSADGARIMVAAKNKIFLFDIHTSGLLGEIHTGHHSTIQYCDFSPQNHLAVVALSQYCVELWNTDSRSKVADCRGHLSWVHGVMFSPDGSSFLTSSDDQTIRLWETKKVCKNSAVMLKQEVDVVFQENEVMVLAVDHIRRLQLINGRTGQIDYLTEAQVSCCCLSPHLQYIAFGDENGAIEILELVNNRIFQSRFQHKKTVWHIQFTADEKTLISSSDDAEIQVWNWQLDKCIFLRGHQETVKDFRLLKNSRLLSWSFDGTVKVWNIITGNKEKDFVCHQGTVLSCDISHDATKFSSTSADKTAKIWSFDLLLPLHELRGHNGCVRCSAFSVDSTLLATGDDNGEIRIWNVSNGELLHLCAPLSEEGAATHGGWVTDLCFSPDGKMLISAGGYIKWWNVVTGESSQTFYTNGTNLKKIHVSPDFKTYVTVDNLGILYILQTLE

[6] = MDA-MB-231 cell growth inhibition, dose response, cytotoxicity control for RAD54 inhibitor project, CellTiter-Glo luminescence, cherry-pick (AID 651692); assay type: functional, cell-based
[7] = biological target: SWI/SNF-related matrix-associated actin-dependent regulator of chromatin subfamily A member 2 (Homo sapiens, UniProt P51531); experiment: Luminescence-based cell-based high throughput dose response assay to identify activators of the function of SWI/SNF related, matrix associated, actin dependent regulator of chromatin, subfamily a, member 2 (SMARCA2, BRM).; assay type: functional
[8] = biological target: T3, DNA repair and recombination protein RAD54-like (Homo sapiens, UniProt Q92698); experiment: inhibitors of human RAD54 branch migration, confirmation, biochemical, fluorescence, cherry-picked samples, dose series (AID 651657); assay type: functional
T3 sequence (Q92698 whole entry): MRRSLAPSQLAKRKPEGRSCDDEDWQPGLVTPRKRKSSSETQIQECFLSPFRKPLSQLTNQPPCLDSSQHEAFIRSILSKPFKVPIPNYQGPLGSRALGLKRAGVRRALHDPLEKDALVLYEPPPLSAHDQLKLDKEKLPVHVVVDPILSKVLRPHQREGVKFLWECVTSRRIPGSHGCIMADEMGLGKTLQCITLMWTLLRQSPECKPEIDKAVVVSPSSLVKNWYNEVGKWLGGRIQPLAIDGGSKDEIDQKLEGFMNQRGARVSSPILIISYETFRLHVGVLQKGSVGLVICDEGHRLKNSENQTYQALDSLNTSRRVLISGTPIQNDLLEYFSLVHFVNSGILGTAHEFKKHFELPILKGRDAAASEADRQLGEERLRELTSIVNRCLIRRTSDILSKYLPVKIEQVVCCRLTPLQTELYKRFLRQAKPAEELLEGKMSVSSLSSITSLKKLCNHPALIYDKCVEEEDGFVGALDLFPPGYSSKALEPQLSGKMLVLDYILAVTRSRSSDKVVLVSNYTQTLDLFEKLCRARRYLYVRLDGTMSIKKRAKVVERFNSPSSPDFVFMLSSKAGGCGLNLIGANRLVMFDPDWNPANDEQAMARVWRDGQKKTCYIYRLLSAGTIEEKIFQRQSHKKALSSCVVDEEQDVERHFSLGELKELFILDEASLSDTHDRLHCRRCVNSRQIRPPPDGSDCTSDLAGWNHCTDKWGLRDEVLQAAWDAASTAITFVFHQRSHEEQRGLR

[9] = biological target: DNA (cytosine-5)-methyltransferase 1 (Homo sapiens, UniProt P26358); experiment: DNMT1 methyltransferase inhibitors, confirmation, biochemical, fluorescent molecular beacon (AID 602386); assay type: functional
[10] = biological target: T4, DNA repair protein RAD52 homolog (Homo sapiens, UniProt P43351); assay type: functional, biochemical
T4 sequence (P43351 whole entry): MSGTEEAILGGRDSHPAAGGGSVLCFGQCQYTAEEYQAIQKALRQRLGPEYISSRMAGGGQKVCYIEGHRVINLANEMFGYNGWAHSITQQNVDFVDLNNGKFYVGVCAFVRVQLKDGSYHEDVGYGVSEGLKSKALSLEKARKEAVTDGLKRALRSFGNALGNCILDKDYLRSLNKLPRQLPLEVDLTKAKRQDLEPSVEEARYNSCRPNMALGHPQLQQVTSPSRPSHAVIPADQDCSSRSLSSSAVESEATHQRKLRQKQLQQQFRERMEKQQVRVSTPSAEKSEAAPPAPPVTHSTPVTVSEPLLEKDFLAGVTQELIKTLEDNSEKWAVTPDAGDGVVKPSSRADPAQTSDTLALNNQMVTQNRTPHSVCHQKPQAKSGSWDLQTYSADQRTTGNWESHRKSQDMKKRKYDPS

[11] = Counterscreen for activators of the function of SWI/SNF related, matrix associated, actin dependent regulator of chromatin, subfamily a, member 2 (SMARCA2, BRM): Luminescence-based cell-based high throughput dose response assay to identify non-selective compounds using the VP16 reporter assay.; assay type: functional
[12] = DNA binding of candidate compounds, dose response, artefact control for RAD54 inhibitor project, biochemical, fluorescence polarization, cherry-pick (AID 651673); assay type: functional
[13] = biological target: T5, Low molecular weight phosphotyrosine protein phosphatase (Homo sapiens, UniProt P24666); assay type: functional; conditions: read-out: IC50_Mean;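 also: Dose-response confirmation assay measuring inhibition of LMPTP enzyme activity by fluorescence intensity read-out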
T5 sequence (P24666 whole entry): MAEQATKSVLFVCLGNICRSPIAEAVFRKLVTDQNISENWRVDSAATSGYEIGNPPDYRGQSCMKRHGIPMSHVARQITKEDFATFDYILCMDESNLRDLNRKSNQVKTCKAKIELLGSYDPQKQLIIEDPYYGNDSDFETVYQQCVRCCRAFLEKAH

[14] = HepG2 cell cytotoxicity, dose response, cytotoxicity control for Shn3 inhibitor project, CellTiter-Glo, cherry-picked (AID 624134); assay type: functional, cell-based
[15] = biological target: T6, High affinity choline transporter 1 (Homo sapiens, UniProt Q9GZV3); experiment: CHT inhibitors, dose response, cell-based, 10-point CRC, membrane potential dye (AID 588401); assay type: functional;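 also: membrane potential dye fluorescence of choline-evoked depolarization via CHT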
T6 sequence (Q9GZV3 whole entry): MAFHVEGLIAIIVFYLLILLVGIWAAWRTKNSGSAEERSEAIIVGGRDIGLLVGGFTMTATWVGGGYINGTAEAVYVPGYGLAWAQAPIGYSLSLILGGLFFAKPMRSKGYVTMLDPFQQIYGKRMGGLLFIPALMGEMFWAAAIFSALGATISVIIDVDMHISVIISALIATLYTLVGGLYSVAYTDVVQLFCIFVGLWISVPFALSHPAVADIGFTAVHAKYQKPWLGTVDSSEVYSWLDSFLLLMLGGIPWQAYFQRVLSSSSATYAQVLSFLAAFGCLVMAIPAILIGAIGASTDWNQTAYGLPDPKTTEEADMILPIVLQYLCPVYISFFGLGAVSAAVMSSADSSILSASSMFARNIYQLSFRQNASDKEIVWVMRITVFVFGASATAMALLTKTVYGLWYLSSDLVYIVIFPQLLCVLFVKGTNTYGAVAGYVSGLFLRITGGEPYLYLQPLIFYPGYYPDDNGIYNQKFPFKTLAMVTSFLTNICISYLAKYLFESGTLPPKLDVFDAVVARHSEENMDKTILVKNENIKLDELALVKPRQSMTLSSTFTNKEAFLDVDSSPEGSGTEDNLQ

[16] = biological target: Beta Lactamase (Pseudomonas aeruginosa, UniProt Q932Y6); experiment: beta-lactamase reporter inhibitor potency, dose response, artefact control for TLR9-MyD88 binding inhibitor project, BLA reporter cells, FRET fluorescence (AID 588341); assay type: cell-based;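 also: cell based assay in CHO-K1 cells stably expressing beta-lactamase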
[17] = tested on: CHO; experiment: cytotoxicity in TLR9-MyD88 CHO cells, dose response, cytotoxicity control for TLR9-MyD88 binding inhibitor project, cell-based, luminescence (AID 588339); assay type: functional, hamster; conditions: Cricetulus griseus;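 also: CHO cells stably coexpressing TLR9 and MyD88 fusions from primary screen; compound exposure lasted 48 hours before viability readout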
[18] = biological target: T6, High affinity choline transporter 1; experiment: CHT inhibitors, dose response, cell-based, 5-point CRC, membrane potential dye (AID 504840); assay type: functional
[19] = Shn3 3'UTR reporter inhibitors, dose response, cell-based, Clone20 osteoblasts, firefly luciferase, cherry-picked (AID 624132); assay type: functional;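 also: firefly luciferase luminescence from reporter carrying the Shn3 3'UTR in osteoblasts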
[20] = control 3'UTR Renilla luciferase suppression, dose response, counter-screen for Shn3 inhibitor project, cell-based, Clone20-Shn3RL, cherry-picked (AID 624133); assay type: functional

Sequence of Large T antigen (P03070 whole entry): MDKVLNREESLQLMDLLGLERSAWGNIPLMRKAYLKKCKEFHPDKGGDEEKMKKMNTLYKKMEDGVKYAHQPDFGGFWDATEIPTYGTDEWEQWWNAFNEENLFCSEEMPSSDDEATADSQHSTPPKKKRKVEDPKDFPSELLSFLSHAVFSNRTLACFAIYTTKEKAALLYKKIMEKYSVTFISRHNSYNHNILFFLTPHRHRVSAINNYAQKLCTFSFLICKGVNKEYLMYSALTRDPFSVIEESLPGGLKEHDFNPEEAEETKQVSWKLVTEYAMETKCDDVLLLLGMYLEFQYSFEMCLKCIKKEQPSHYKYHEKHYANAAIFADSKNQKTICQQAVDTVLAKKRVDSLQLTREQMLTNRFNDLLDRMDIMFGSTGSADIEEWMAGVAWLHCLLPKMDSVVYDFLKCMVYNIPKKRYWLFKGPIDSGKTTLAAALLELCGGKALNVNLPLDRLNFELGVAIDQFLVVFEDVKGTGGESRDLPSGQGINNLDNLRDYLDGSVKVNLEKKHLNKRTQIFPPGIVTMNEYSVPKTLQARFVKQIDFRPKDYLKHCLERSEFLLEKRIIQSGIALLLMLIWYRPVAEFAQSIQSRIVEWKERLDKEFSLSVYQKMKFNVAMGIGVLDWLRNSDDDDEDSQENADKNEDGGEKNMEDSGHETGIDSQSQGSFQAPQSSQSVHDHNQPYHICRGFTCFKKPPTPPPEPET
Sequence of SWI/SNF-related matrix-associated actin-dependent regulator of chromatin subfamily A member 2 (P51531 whole entry): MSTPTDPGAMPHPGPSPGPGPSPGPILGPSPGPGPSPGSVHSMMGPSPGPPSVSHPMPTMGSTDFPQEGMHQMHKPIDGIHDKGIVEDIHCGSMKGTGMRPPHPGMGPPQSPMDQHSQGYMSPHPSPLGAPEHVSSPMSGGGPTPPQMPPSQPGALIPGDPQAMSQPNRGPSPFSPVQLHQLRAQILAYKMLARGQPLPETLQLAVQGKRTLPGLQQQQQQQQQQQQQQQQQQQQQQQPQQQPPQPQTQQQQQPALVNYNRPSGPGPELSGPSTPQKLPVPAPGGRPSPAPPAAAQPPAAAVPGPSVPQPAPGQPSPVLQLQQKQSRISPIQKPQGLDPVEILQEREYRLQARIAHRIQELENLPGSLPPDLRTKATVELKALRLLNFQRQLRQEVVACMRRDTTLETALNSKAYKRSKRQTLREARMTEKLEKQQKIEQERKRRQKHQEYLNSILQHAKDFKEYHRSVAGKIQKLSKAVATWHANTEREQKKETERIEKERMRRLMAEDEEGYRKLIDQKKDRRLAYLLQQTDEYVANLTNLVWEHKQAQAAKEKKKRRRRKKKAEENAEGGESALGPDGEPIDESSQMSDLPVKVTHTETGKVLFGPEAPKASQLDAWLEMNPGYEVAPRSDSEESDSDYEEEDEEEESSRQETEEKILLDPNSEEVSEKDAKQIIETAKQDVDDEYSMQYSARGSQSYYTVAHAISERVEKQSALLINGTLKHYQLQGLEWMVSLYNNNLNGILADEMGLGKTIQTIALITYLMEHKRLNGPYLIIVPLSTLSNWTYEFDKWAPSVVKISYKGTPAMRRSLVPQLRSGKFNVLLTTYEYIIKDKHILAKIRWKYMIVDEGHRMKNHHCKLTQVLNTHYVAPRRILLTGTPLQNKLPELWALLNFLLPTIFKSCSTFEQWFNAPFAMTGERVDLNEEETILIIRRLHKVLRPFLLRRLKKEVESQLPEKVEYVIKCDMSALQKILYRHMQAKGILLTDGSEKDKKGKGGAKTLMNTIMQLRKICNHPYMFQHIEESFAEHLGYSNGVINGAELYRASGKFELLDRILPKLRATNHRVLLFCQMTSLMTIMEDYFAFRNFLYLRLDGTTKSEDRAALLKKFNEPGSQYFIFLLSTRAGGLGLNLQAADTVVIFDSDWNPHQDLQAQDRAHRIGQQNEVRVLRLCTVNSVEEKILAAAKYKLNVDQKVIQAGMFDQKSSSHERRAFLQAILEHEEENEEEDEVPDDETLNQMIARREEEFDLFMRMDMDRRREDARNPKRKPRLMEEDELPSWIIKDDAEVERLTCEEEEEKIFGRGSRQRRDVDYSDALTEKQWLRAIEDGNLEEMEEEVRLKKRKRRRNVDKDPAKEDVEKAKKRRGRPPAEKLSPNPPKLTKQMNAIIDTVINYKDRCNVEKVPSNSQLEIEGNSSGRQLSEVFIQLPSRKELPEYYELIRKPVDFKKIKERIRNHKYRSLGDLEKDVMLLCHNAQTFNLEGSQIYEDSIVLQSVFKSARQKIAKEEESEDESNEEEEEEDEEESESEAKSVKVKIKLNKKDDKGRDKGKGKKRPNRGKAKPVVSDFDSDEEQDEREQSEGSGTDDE
Sequence of Beta Lactamase (Q932Y6 whole entry, the tested form may be a part): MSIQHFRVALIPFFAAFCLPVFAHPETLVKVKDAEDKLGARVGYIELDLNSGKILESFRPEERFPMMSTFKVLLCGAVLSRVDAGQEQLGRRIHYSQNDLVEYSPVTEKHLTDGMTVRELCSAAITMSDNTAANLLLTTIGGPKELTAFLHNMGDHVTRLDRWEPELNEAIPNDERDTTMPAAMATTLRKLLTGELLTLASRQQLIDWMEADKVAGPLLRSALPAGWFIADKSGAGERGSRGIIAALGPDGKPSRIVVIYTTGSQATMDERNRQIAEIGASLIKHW
Sequence of DNA (cytosine-5)-methyltransferase 1 (P26358 whole entry): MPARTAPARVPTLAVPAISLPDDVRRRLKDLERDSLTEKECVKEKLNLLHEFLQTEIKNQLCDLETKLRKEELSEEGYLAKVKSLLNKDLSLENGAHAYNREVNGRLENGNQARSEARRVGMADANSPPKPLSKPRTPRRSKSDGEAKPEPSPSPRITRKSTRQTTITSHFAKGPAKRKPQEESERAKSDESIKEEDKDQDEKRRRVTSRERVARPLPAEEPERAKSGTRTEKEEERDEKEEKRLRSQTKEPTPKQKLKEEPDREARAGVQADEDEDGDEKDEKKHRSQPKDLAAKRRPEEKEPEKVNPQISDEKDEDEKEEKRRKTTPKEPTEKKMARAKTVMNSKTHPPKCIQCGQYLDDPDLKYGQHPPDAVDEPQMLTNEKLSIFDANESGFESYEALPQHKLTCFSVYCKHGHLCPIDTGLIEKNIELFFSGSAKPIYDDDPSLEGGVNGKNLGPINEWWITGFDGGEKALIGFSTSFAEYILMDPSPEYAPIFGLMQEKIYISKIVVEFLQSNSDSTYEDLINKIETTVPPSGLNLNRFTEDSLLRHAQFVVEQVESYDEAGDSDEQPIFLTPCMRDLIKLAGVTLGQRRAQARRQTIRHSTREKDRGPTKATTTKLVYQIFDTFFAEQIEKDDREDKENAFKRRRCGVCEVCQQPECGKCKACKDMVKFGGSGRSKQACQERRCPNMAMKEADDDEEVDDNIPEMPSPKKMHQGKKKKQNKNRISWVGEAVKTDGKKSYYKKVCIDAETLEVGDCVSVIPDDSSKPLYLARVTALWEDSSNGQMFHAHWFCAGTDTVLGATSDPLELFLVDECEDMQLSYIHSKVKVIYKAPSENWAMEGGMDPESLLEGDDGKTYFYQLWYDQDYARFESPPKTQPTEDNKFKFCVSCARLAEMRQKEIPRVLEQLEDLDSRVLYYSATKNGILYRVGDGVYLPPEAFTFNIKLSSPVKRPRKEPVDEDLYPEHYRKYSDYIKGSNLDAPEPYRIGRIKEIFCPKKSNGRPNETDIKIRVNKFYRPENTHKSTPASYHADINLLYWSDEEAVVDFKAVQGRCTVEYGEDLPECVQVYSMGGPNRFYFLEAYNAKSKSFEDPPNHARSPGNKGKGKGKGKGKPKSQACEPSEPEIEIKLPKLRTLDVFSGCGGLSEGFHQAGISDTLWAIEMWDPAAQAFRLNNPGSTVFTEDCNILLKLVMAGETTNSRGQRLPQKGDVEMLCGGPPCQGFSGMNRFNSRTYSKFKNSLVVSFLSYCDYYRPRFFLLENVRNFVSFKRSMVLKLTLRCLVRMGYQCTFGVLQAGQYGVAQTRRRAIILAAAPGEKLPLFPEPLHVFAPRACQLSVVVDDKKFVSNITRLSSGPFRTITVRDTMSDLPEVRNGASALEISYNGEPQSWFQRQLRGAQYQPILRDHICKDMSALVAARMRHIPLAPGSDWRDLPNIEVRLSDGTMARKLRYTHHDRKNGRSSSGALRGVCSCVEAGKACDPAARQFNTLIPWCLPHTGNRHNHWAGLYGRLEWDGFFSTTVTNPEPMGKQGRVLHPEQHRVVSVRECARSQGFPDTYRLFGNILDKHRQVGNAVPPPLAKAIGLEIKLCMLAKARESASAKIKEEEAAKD

Q: Which AC50 [1] does the source give for `Cc1cccc(C)c1NC(=O)CSCC(=O)c1ccc(O)c(O)c1` here?
A: 2.43 µM (active)

Q: What about the IC50 [2] of the same compound?
A: 12.8 µM (active)

Q: And the IC50 [3]?
A: 20.9 µM (active)

Q: And the AC50 [4]?
A: 15 µM (active)

Q: With `CCC(=O)N1CCc2cc(Br)c(S(=O)(=O)CCC(=O)Nc3cc(Cl)ccc3OC)cc21` as the compound, how does the EC50 [5] read?
A: > 100 µM (inactive)

Q: Which AC50 [6] does the source give for `COc1ccc2nc(C)cc(Nc3ccc(N4CCN(C)CC4)cc3)c2c1` here?
A: 52 µM (inactive)

Q: What about the EC50 [7] of the same compound?
A: > 3.38 µM (active)

Q: What about the AC50 [8] of the same compound?
A: 2.45 µM (active)

Q: What about the IC50 [9] of the same compound?
A: 11.4 µM (active)

Q: And the AC50 [10]?
A: 1.27 µM (active)

Q: And the EC50 [11]?
A: > 10.1 µM (inactive)

Q: What about the AC50 [12] of the same compound?
A: 62 µM (active)

Q: With `C/C(=N\NS(=O)(=O)c1ccc(Cl)c([N+](=O)[O-])c1)c1ccc(C)o1` as the compound, how does the IC50 [13] read?
A: 80 µM (inactive)

Q: With `O=c1oc2ccccc2c(Cl)c1CN1CCCCC1` as the compound, how does the AC50 [14] read?
A: > 70 µM (inactive)

Q: And the IC50 [15]?
A: 6.69 µM (active)

Q: What about the IC50 [16] of the same compound?
A: 6.02 µM (active)

Q: And the IC50 [17]?
A: 1.22 µM (active)

Q: What about the IC50 [18] of the same compound?
A: 10 µM (active)

Q: And the AC50 [19]?
A: 4.99 µM (active)

Q: What about the AC50 [20] of the same compound?
A: 7.15 µM (active)
